Assay results: PubChem BioAssay AID1963440 (Molecular Pharmacology Branch, DTP, NCI, 2024)
Several values for one entry are separate records, joined by “and”; a condition that tells them apart may be missing. Equal entries are not always repeated. Values belong to the molecule of their own block, whether it stands above or below them.

Test system: NCI-H1417 complex spheroids, growth % test/control
Test: Anticancer human tumor NCI-H1417 cell line growth inhibition [Asc];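 also: spheroids exposed to compounds for 7 days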;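 as to viability, T/C: 100% = DMSO vehicle control wells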
Conditions: for viability, T/C: stronger effect = lower value
Outline: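 Concentration series start at each agent's clinical Cmax, or at 10 microM when none is established, and drop in half-log steps; agents are applied alone or together to complex spheroids built with HUVEC and hMSC.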

[1] = curve of first compound, second compound 0.1 µM
[2] = curve of first compound, second compound 0.316 µM
[3] = curve of first compound, second compound 1 µM
[4] = curve of first compound, second compound 3.16 µM
[5] = curve of first compound, second compound 10 µM
[6] = second compound 0.1 µM, first compound 0.0316 µM
[7] = second compound 0.1 µM, first compound 0.1 µM
[8] = second compound 0.316 µM, first compound 0.0316 µM
[9] = second compound 0.316 µM, first compound 0.1 µM
[10] = second compound 1 µM, first compound 0.0316 µM
[11] = second compound 1 µM, first compound 0.1 µM
[12] = second compound 3.16 µM, first compound 0.0316 µM
[13] = second compound 3.16 µM, first compound 0.1 µM
[14] = second compound 10 µM, first compound 0.0316 µM
[15] = second compound 10 µM, first compound 0.1 µM
[16] = second compound 0.1 µM, first compound 0.316 µM
[17] = second compound 0.1 µM, first compound 1 µM
[18] = second compound 0.1 µM, first compound 3.16 µM
[19] = second compound 0.1 µM, first compound 10 µM
[20] = second compound 0.316 µM, first compound 0.316 µM
[21] = second compound 0.316 µM, first compound 1 µM
[22] = second compound 0.316 µM, first compound 3.16 µM
[23] = second compound 0.316 µM, first compound 10 µM
[24] = second compound 1 µM, first compound 0.316 µM
[25] = second compound 1 µM, first compound 1 µM
[26] = second compound 1 µM, first compound 3.16 µM
[27] = second compound 1 µM, first compound 10 µM

IC50 [1]: > 0.1 µM
IC50 [2]: < 0.000316 µM
IC50 [3]: < 0.000316 µM
IC50 [4]: < 0.000316 µM
IC50 [5]: < 0.000316 µM
Structure (SMILES): NC1CCC(NC2CC2c2ccccc2)CC1 (configuration not stated) + Cc1c(S(C)(=O)=O)c(-c2cc(F)cc(N3CCN(c4ccc(NS(=O)(=O)c5ccc(NC(CCN6CCC(C(=O)OCCCP(=O)(O)O)CC6)CSc6ccccc6)c(S(=O)(=O)C(F)(F)F)c5)cc4)CC3)c2)c(-c2ccc(Cl)cc2)n1C(C)C
viability, T/C (second compound 0.1 µM, first compound 0.000316 µM): 66.5%
viability, T/C (second compound 0.1 µM, first compound 0.001 µM): 69%
viability, T/C (second compound 0.1 µM, first compound 0.00316 µM): 61.8%
viability, T/C (second compound 0.1 µM, first compound 0.01 µM): 65.1%
viability, T/C [6]: 65.7%
viability, T/C [7]: 64.3%
viability, T/C (second compound 0.316 µM, first compound 0.000316 µM): 45.1%
viability, T/C (second compound 0.316 µM, first compound 0.001 µM): 43.2%
viability, T/C (second compound 0.316 µM, first compound 0.00316 µM): 34.7%
viability, T/C (second compound 0.316 µM, first compound 0.01 µM): 40.1%
viability, T/C [8]: 38.8%
viability, T/C [9]: 38.8%
viability, T/C (second compound 1 µM, first compound 0.000316 µM): 12.5%
viability, T/C (second compound 1 µM, first compound 0.001 µM): 14.6%
viability, T/C (second compound 1 µM, first compound 0.00316 µM): 16.3%
viability, T/C (second compound 1 µM, first compound 0.01 µM): 11.2%
viability, T/C [10]: 16.2%
viability, T/C [11]: 15.7%
viability, T/C (second compound 3.16 µM, first compound 0.000316 µM): 1.88%
viability, T/C (second compound 3.16 µM, first compound 0.001 µM): 1.85%
viability, T/C (second compound 3.16 µM, first compound 0.00316 µM): 2.09%
viability, T/C (second compound 3.16 µM, first compound 0.01 µM): 1.09%
viability, T/C [12]: 1.14%
viability, T/C [13]: 2.64%
viability, T/C (second compound 10 µM, first compound 0.000316 µM): 1.53%
viability, T/C (second compound 10 µM, first compound 0.001 µM): 1.86%
viability, T/C (second compound 10 µM, first compound 0.00316 µM): 1.9%
viability, T/C (second compound 10 µM, first compound 0.01 µM): 1.64%
viability, T/C [14]: 2.09%
viability, T/C [15]: 1.63%

IC50 (curve of first compound, second compound 0.01 µM): > 10 µM
IC50 (curve of first compound, second compound 0.0316 µM): > 10 µM
IC50 [1]: > 10 µM
IC50 [2]: > 10 µM
IC50 [3]: > 10 µM
Structure (SMILES): C=CC(=O)N1CCN(c2nc(=O)n(-c3c(C)ccnc3C(C)C)c3nc(-c4c(O)cccc4F)c(F)cc23)C(C)C1 (configuration not stated) + CNC(C)C(=O)NC1CN(S(=O)(=O)c2cccc(S(=O)(=O)N3CCC4CCC(C(=O)NC(c5ccccc5)c5ccccc5)N4C(=O)C(NC(=O)C(C)NC)C3)c2)CCC2CCC(C(=O)NC(c3ccccc3)c3ccccc3)N2C1=O
viability, T/C (second compound 0.01 µM, first compound 0.0316 µM): 94%
viability, T/C (second compound 0.01 µM, first compound 0.1 µM): 90%
viability, T/C (second compound 0.01 µM, first compound 0.316 µM): 97.6%
viability, T/C (second compound 0.01 µM, first compound 1 µM): 96.2%
viability, T/C (second compound 0.01 µM, first compound 3.16 µM): 102%
viability, T/C (second compound 0.01 µM, first compound 10 µM): 103%
viability, T/C (second compound 0.0316 µM, first compound 0.0316 µM): 88.1%
viability, T/C (second compound 0.0316 µM, first compound 0.1 µM): 99.8%
viability, T/C (second compound 0.0316 µM, first compound 0.316 µM): 89.9%
viability, T/C (second compound 0.0316 µM, first compound 1 µM): 94.4%
viability, T/C (second compound 0.0316 µM, first compound 3.16 µM): 97.6%
viability, T/C (second compound 0.0316 µM, first compound 10 µM): 87.8%
viability, T/C [6]: 99.3%
viability, T/C [7]: 87.5%
viability, T/C [16]: 96.7%
viability, T/C [17]: 96.9%
viability, T/C [18]: 92%
viability, T/C [19]: 88.2%
viability, T/C [8]: 84.6%
viability, T/C [9]: 94.3%
viability, T/C [20]: 94.6%
viability, T/C [21]: 92.5%
viability, T/C [22]: 93.8%
viability, T/C [23]: 86.2%
viability, T/C [10]: 90.9%
viability, T/C [11]: 101%
viability, T/C [24]: 89.4%
viability, T/C [25]: 90.2%
viability, T/C [26]: 104%
viability, T/C [27]: 93.3%

IC50 [1]: > 10 µM
IC50 [2]: 3.96 µM
IC50 [3]: < 0.0316 µM
IC50 [4]: < 0.0316 µM
IC50 [5]: < 0.0316 µM
Structure (SMILES): C=CC(=O)N1CCN(c2nc(=O)n(-c3c(C)ccnc3C(C)C)c3nc(-c4c(O)cccc4F)c(F)cc23)C(C)C1 (configuration not stated) + Cc1c(S(C)(=O)=O)c(-c2cc(F)cc(N3CCN(c4ccc(NS(=O)(=O)c5ccc(NC(CCN6CCC(C(=O)OCCCP(=O)(O)O)CC6)CSc6ccccc6)c(S(=O)(=O)C(F)(F)F)c5)cc4)CC3)c2)c(-c2ccc(Cl)cc2)n1C(C)C
viability, T/C [6]: 79.9%
viability, T/C [7]: 97.7%
viability, T/C [16]: 94%
viability, T/C [17]: 88.7%
viability, T/C [18]: 79.5%
viability, T/C [19]: 76.5%
viability, T/C [8]: 50.7%
viability, T/C [9]: 52.8%
viability, T/C [20]: 59.2%
viability, T/C [21]: 55.8%
viability, T/C [22]: 60.4%
viability, T/C [23]: 26.5%
viability, T/C [10]: 12.8%
viability, T/C [11]: 19%
viability, T/C [24]: 19.2%
viability, T/C [25]: 27.2%
viability, T/C [26]: 15.7%
viability, T/C [27]: 6.31%
viability, T/C [12]: 3.89%
viability, T/C [13]: 4.22%
viability, T/C (second compound 3.16 µM, first compound 0.316 µM): 4.64%
viability, T/C (second compound 3.16 µM, first compound 1 µM): 3.72%
viability, T/C (second compound 3.16 µM, first compound 3.16 µM): 3.98%
viability, T/C (second compound 3.16 µM, first compound 10 µM): 3.94%
viability, T/C [14]: 2.86%
viability, T/C [15]: 2.89%
viability, T/C (second compound 10 µM, first compound 0.316 µM): 3.43%
viability, T/C (second compound 10 µM, first compound 1 µM): 2.4%
viability, T/C (second compound 10 µM, first compound 3.16 µM): 3.1%
viability, T/C (second compound 10 µM, first compound 10 µM): 3.85%

IC50 (curve of compound): > 10 µM
Structure (SMILES): C=CC(=O)N1CCN(c2nc(=O)n(-c3c(C)ccnc3C(C)C)c3nc(-c4c(O)cccc4F)c(F)cc23)C(C)C1 (configuration not stated)
viability, T/C (compound 0.0316 µM): 111% and 108% and 110%
viability, T/C (compound 0.1 µM): 105% and 90.2% and 96.7%
viability, T/C (compound 0.316 µM): 112% and 98.4% and 106%
viability, T/C (compound 1 µM): 111% and 105% and 101%
viability, T/C (compound 3.16 µM): 99.4% and 104% and 103%
viability, T/C (compound 10 µM): 99.5% and 102% and 94.5%
